Test results published in patent US8192962B2, “Processes for detecting toxic substances” (Daikin Industries, Ltd., priority 2001, dated 2012).

Test system: Unknown protein yeast genes
Test: DNA chip mRNA expression in yeast, unknown protein yeast genes (Table 1)
Format: cell-based, Saccharomyces cerevisiae S288C
Method in brief: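 Expression change after 2 h toxicant exposure (growth-inhibiting, sub-lethal) of log-phase S. cerevisiae S288C at 25° C. Oligo-dT-purified mRNA was labeled with Cy3-dUTP or Cy5-dUTP and hybridized >12 h at 65° C. to a genome-wide chip; ratio of scanned fluorescence to control.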

SMILES: CN(C)C(=S)SSC(=S)N(C)C [(10), Tetramethylthiuram disulfide]
- The level of expressed mRNA in the presence of chemical substance/The level of expressed mRNA in the absence of chemical substance (yeast gene YAL053W, incubated two hours with chemical substance): 0.9
- The level of expressed mRNA in the presence of chemical substance/The level of expressed mRNA in the absence of chemical substance (yeast gene YBL048W): 4.4
- The level of expressed mRNA in the presence of chemical substance/The level of expressed mRNA in the absence of chemical substance (yeast gene YBL107C): 3.1
- The level of expressed mRNA in the presence of chemical substance/The level of expressed mRNA in the absence of chemical substance (yeast gene YBR100W): 3.0
- The level of expressed mRNA in the presence of chemical substance/The level of expressed mRNA in the absence of chemical substance (yeast gene YDL072C, incubated two hours with chemical substance): 1.5
- The level of expressed mRNA in the presence of chemical substance/The level of expressed mRNA in the absence of chemical substance (yeast gene YDL204W, incubated two hours with chemical substance): 2.0
- The level of expressed mRNA in the presence of chemical substance/The level of expressed mRNA in the absence of chemical substance (yeast gene YDL222C, incubated two hours with chemical substance): 1.0
- The level of expressed mRNA in the presence of chemical substance/The level of expressed mRNA in the absence of chemical substance (yeast gene YDR330W, incubated two hours with chemical substance): 2.6
- The level of expressed mRNA in the presence of chemical substance/The level of expressed mRNA in the absence of chemical substance (yeast gene YDR391C, incubated two hours with chemical substance): 2.7
- The level of expressed mRNA in the presence of chemical substance/The level of expressed mRNA in the absence of chemical substance (yeast gene YDR411C, incubated two hours with chemical substance): 1.0
- The level of expressed mRNA in the presence of chemical substance/The level of expressed mRNA in the absence of chemical substance (yeast gene YDR511W, incubated two hours with chemical substance): 2.2
- The level of expressed mRNA in the presence of chemical substance/The level of expressed mRNA in the absence of chemical substance (yeast gene YDR545W, incubated two hours with chemical substance): 0.7
- The level of expressed mRNA in the presence of chemical substance/The level of expressed mRNA in the absence of chemical substance (yeast gene YEL001C, incubated two hours with chemical substance): 1.2
- The level of expressed mRNA in the presence of chemical substance/The level of expressed mRNA in the absence of chemical substance (yeast gene YER004W, incubated two hours with chemical substance): 2.9
- The level of expressed mRNA in the presence of chemical substance/The level of expressed mRNA in the absence of chemical substance (yeast gene YER035W, incubated two hours with chemical substance): 1.4
- The level of expressed mRNA in the presence of chemical substance/The level of expressed mRNA in the absence of chemical substance (yeast gene YER079W, incubated two hours with chemical substance): 3.4
- The level of expressed mRNA in the presence of chemical substance/The level of expressed mRNA in the absence of chemical substance (yeast gene YER106W, incubated two hours with chemical substance): 1.8
- The level of expressed mRNA in the presence of chemical substance/The level of expressed mRNA in the absence of chemical substance (yeast gene YER158C, incubated two hours with chemical substance): 1.6
- The level of expressed mRNA in the presence of chemical substance/The level of expressed mRNA in the absence of chemical substance (yeast gene YER163C, incubated two hours with chemical substance): 3.4
- The level of expressed mRNA in the presence of chemical substance/The level of expressed mRNA in the absence of chemical substance (yeast gene YER175C, incubated two hours with chemical substance): 11.5
- The level of expressed mRNA in the presence of chemical substance/The level of expressed mRNA in the absence of chemical substance (yeast gene YFL006W, incubated two hours with chemical substance): 1.7
- The level of expressed mRNA in the presence of chemical substance/The level of expressed mRNA in the absence of chemical substance (yeast gene YFL010C, incubated two hours with chemical substance): 1.4
- The level of expressed mRNA in the presence of chemical substance/The level of expressed mRNA in the absence of chemical substance (yeast gene YFL024C): 0.5
- The level of expressed mRNA in the presence of chemical substance/The level of expressed mRNA in the absence of chemical substance (yeast gene YFL032W, incubated two hours with chemical substance): 0.6
- The level of expressed mRNA in the presence of chemical substance/The level of expressed mRNA in the absence of chemical substance (yeast gene YFR020W): 3.5
- The level of expressed mRNA in the presence of chemical substance/The level of expressed mRNA in the absence of chemical substance (yeast gene YGL037C, incubated two hours with chemical substance): 1.6
- The level of expressed mRNA in the presence of chemical substance/The level of expressed mRNA in the absence of chemical substance (yeast gene YGL047W, incubated two hours with chemical substance): 5.7
- The level of expressed mRNA in the presence of chemical substance/The level of expressed mRNA in the absence of chemical substance (yeast gene YGL053W, incubated two hours with chemical substance): 2.4
- The level of expressed mRNA in the presence of chemical substance/The level of expressed mRNA in the absence of chemical substance (yeast gene YGL121C): 15.0
- The level of expressed mRNA in the presence of chemical substance/The level of expressed mRNA in the absence of chemical substance (yeast gene YGL199C, incubated two hours with chemical substance): 0.1
- The level of expressed mRNA in the presence of chemical substance/The level of expressed mRNA in the absence of chemical substance (yeast gene YGR101W, incubated two hours with chemical substance): 1.4
- The level of expressed mRNA in the presence of chemical substance/The level of expressed mRNA in the absence of chemical substance (yeast gene YGR110W): 4.8
- The level of expressed mRNA in the presence of chemical substance/The level of expressed mRNA in the absence of chemical substance (yeast gene YGR130C, incubated two hours with chemical substance): 1.5
- The level of expressed mRNA in the presence of chemical substance/The level of expressed mRNA in the absence of chemical substance (yeast gene YGR154C, incubated two hours with chemical substance): 9.1
- The level of expressed mRNA in the presence of chemical substance/The level of expressed mRNA in the absence of chemical substance (yeast gene YGR221C, incubated two hours with chemical substance): 0.7
- The level of expressed mRNA in the presence of chemical substance/The level of expressed mRNA in the absence of chemical substance (yeast gene YGR243W): 3.0
- The level of expressed mRNA in the presence of chemical substance/The level of expressed mRNA in the absence of chemical substance (yeast gene YHR029C): 8.6
- The level of expressed mRNA in the presence of chemical substance/The level of expressed mRNA in the absence of chemical substance (yeast gene YHR105W): 3.4
- The level of expressed mRNA in the presence of chemical substance/The level of expressed mRNA in the absence of chemical substance (yeast gene YHR138C, incubated two hours with chemical substance): 4.6
- The level of expressed mRNA in the presence of chemical substance/The level of expressed mRNA in the absence of chemical substance (yeast gene YHR199C, incubated two hours with chemical substance): 6.0
- The level of expressed mRNA in the presence of chemical substance/The level of expressed mRNA in the absence of chemical substance (yeast gene YHR209W): 6.4
- The level of expressed mRNA in the presence of chemical substance/The level of expressed mRNA in the absence of chemical substance (yeast gene YIL023C, incubated two hours with chemical substance): 1.6
- The level of expressed mRNA in the presence of chemical substance/The level of expressed mRNA in the absence of chemical substance (yeast gene YIL024C, incubated two hours with chemical substance): 1.8
- The level of expressed mRNA in the presence of chemical substance/The level of expressed mRNA in the absence of chemical substance (yeast gene YIL041W, incubated two hours with chemical substance): 1.4
- The level of expressed mRNA in the presence of chemical substance/The level of expressed mRNA in the absence of chemical substance (yeast gene YIL087C, incubated two hours with chemical substance): 1.8
- The level of expressed mRNA in the presence of chemical substance/The level of expressed mRNA in the absence of chemical substance (yeast gene YJL057C, incubated two hours with chemical substance): 6.1
- The level of expressed mRNA in the presence of chemical substance/The level of expressed mRNA in the absence of chemical substance (yeast gene YJL066C, incubated two hours with chemical substance): 2.1
- The level of expressed mRNA in the presence of chemical substance/The level of expressed mRNA in the absence of chemical substance (yeast gene YJL082W, incubated two hours with chemical substance): 2.9
- The level of expressed mRNA in the presence of chemical substance/The level of expressed mRNA in the absence of chemical substance (yeast gene YJL151C, incubated two hours with chemical substance): 1.6
- The level of expressed mRNA in the presence of chemical substance/The level of expressed mRNA in the absence of chemical substance (yeast gene YJL152W, incubated two hours with chemical substance): 1.0
- The level of expressed mRNA in the presence of chemical substance/The level of expressed mRNA in the absence of chemical substance (yeast gene YJL161W, incubated two hours with chemical substance): 2.1
- The level of expressed mRNA in the presence of chemical substance/The level of expressed mRNA in the absence of chemical substance (yeast gene YJL171C, incubated two hours with chemical substance): 1.7
- The level of expressed mRNA in the presence of chemical substance/The level of expressed mRNA in the absence of chemical substance (yeast gene YJR008W, incubated two hours with chemical substance): 1.9
- The level of expressed mRNA in the presence of chemical substance/The level of expressed mRNA in the absence of chemical substance (yeast gene YJR054W, incubated two hours with chemical substance): 0.6
- The level of expressed mRNA in the presence of chemical substance/The level of expressed mRNA in the absence of chemical substance (yeast gene YKL071W): 109.2
